Results on eleven compounds are retold here after US11427548B2 (Arvinas Operations, Inc., priority 2015, dated 2022).

The assay addresses T1, Androgen Receptor (Homo sapiens, UniProt P10275).
T1 construct: endogenous in cells; host or cells: VCaP cells
T1 sequence (P10275 1-920): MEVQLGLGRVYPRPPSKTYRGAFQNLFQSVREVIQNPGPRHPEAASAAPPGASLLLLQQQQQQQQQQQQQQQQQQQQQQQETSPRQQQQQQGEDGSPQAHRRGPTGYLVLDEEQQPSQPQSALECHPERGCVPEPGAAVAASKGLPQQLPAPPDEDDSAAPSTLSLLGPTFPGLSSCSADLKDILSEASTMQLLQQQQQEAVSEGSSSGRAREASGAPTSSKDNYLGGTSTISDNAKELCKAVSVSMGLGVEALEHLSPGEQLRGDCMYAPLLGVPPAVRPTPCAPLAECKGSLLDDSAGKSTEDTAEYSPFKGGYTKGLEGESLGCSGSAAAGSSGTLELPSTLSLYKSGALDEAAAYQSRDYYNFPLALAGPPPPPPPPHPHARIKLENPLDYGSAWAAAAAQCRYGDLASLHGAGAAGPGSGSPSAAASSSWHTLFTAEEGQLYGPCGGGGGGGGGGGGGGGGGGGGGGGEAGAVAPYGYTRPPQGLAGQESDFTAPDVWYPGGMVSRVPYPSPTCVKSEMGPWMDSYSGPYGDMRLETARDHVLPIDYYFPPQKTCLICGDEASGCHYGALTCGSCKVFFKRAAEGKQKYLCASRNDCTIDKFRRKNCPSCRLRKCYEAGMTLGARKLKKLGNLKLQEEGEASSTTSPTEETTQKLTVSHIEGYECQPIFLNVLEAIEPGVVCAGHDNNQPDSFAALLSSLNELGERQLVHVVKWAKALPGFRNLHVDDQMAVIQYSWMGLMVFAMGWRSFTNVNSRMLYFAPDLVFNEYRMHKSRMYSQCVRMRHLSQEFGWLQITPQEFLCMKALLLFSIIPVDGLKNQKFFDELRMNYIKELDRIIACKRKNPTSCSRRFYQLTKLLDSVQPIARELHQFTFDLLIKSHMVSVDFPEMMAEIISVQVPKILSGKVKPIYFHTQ
Put plainly: Androgen Receptor ELISA assay (PathScan AR ELISA) in VCaP cells: AR degradation, Dmax and DC50. Format: cell-based. The method, boiled down:
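After 24 h exposure of VCaP cells (charcoal-stripped serum, 0.1 nM R1881 agonist, 0.1% DMSO) to seven half-log compound concentrations, residual AR in lysates was measured by PathScan ELISA (TMB absorbance, 450 nm). Cells were plated at 30,000/well and grown at least 3 days beforehand.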

The mark [1] stands for this setting: VCaP cells; Table 36; read-out: VCaP DC50.
The mark [2] stands for this setting: VCaP, VCaP cells; Table 36; read-out: VCaP Dmax (%).
[3] abbreviates: read-out: VCaP DC50; VCaP cells; Table 36.

One may read the DC50 as the concentration at which degradation of the target reaches its halfway point. What is called Dmax is the greatest extent of degradation seen.

The structures appear in SMILES notation. Where two headings read alike, the source gives them in different places.

Take `Cc1ncsc1-c1ccc([C@H](C)NC(=O)[C@@H]2C[C@@H](O)CN2C(=O)[C@@H](NC(=O)CN2CCN(CCOc3ccc(C(=O)N[C@H]4C(C)(C)[C@H](Oc5ccc(C#N)c(Cl)c5)C4(C)C)cc3)CC2)C(C)(C)C)cc1` [Example 615, (2S,4R)-1-((S)-2-(2-(4-(2-(4-(((1r,3r)-3-(3-chloro-4-cyanophenoxy)-2,2,4,4-tetramethylcyclobutyl)carbamoyl)phenoxy)eth-yl)piperazin-1-yl)acetamido)-3,3-dimethylbutanoyl)-4-hydroxy-N-((S)-1-(4-(4-methylthiazol-5-yl)phenyl)ethyl)pyrrolidine-2-carboxamide]: the DC50 under setting [1] is less than 50 nM. In addition, under setting [2], the Dmax is greater than 71%.

Turning to `Cc1ncsc1-c1ccc([C@H](C)NC(=O)[C@@H]2C[C@@H](O)CN2C(=O)C(C(C)C)n2cnc(-c3ccnc(N4CC[C@H](Oc5ccc(N6C(=S)N(c7ccc(C#N)c(C(F)(F)F)c7)C(=O)C6(C)C)cc5)C4)c3)c2)cc1` (stereo partly drawn) [Example 617, 1-(2-(4-(2-(3-(4-(3-(4-cyano-3-(trifluoromethyl)phenyl)-5,5-dimethyl-4-oxo-2-thioxoimidazolidin-1-yl)phenoxy)pyrrolidin-1-yl)pyridin-4-yl)-1H-imidazol-1-yl)-3-methylbutanoyl)-4-hydroxy-N-(1-(4-(4-methylthiazol-5-yl)phenyl)ethyl)pyrrolidine-2-carboxamide], under “VCaP, read-out: VCaP Dmax (%)”, the Dmax was less than 25%. Further, the DC50 under setting [3] is greater than 501 nM.

Turning to `Cc1ncsc1-c1ccc([C@H](C)NC(=O)[C@@H]2C[C@@H](O)CN2C(=O)[C@@H](NC(=O)COCCCOCCCCCNc2ccc(N3C(=S)N(c4ccc(C#N)c(C(F)(F)F)c4)C(=O)C3(C)C)cn2)C(C)(C)C)cc1` [Example 618, (2S,4R)-1-((S)-2-(2-(3-((5-((5-(3-(4-cyano-3-(trifluoromethyl)phenyl)-5,5-dimethyl-4-oxo-2-thioxoimidazolidin-1-yl)pyridin-2-yl)amino)pentyl)oxy)pro-poxy)acetamido)-3,3-dimethylbutanoyl)-4-hydroxy-N-((S)-1-(4-(4-methylthiazol-5-yl)phenyl)ethyl)pyrrolidine-2-carboxamide], the Dmax (VCaP, read-out: VCaP Dmax (%)) fell in the range of 51 to 70%. The DC50 under setting [3] was less than 50 nM.

Consider `Cc1ncsc1-c1ccc([C@H](C)NC(=O)[C@@H]2CC3CN2C(=O)C(C(C)(C)C)NC(=O)COCCCOCCC(CCOc2ccc(N4C(=S)N(c5ccc(C#N)c(C(F)(F)F)c5)C(=O)C4(C)C)cc2)OC(=O)CC/C=C/CCC(=O)O3)cc1` (stereo partly drawn) [Example 619, (3S,25R,27S,E)-3-(tert-butyl)-14-(2-(4-(3-(4-cyano-3-(trifluoromethyl)phenyl)-5,5-dimethyl-4-oxo-2-thioxoimidazolidin-1-yl)phenoxy)ethyl)-N-((S)-1-(4-(4-methylthiazol-5-yl)phenyl)ethyl)-2,5,16,23-tetraoxo-7,11,15,24-tetraoxa-1,4-diazabicyclo[23.2.1]oct-acos-19-ene-27-carboxamide], for which the Dmax (VCaP, read-out: VCaP Dmax (%)) is less than 25%. The half-maximal degradation concentration (DC50) under setting [3] is greater than 501 nM.

In the case of `Cc1ncsc1-c1ccc([C@H](C)NC(=O)[C@@H]2CC3CN2C(=O)C(C(C)(C)C)NC(=O)COCCCOCCC(CCOc2ccc(N4C(=S)N(c5ccc(C#N)c(C(F)(F)F)c5)C(=O)C4(C)C)cc2)OC(=O)CC/C=C/CCC(=O)O3)cc1` (stereo partly drawn) [Example 620, (3S,25R,27S,E)-3-(tert-butyl)-14-(2-(4-(3-(4-cyano-3-(trifluoroemthyl)phenyl)-5,5-dimethyl-4-oxo-2-thioxoimidazolidin-1-yl)phenoxy)ethyl)-N-((S)-1-(4-(4-methylthiazol-5-yl)phenyl)ethyl)-2,5,16,23-tetraoxo-7,11,15,24-tetraoxa-1,4-diazabicyclo[23.2.1]oct-acos-19-ene-27-carboxamide], under setting [3], the DC50 is greater than 501 nM.

Consider `Cc1ncsc1-c1ccc([C@H](C)NC(=O)[C@@H]2C[C@@H]3CN2C(=O)[C@H](C(C)(C)C)NC(=O)COCCCOCCC(CCOc2ccc(N4C(=S)N(c5ccc(C#N)c(C(F)(F)F)c5)C(=O)C4(C)C)cc2)OC(=O)CCc2cn(nn2)CCCCCC(=O)O3)cc1` (stereo partly drawn) [Example 621, (93R,95S,11S,Z)-11-(tert-butyl)-22-(2-(4-(3-(4-cyano-3-(trifluoromethyl)phenyl)-5,5-dimethyl-4-oxo-2-thioxoimidazolidin-1-yl)phenoxy)ethyl)-N-((S)-1-(4-(4-methylthiazol-5-yl)phenyl)ethyl)-7,10,13,24-tetraoxo-11H-8,15,19,23-tetraoxa-12-aza-1(1,4)-triazola-9(3,1)-pyrrolidinacyclohexaco-saphane-95-carboxamide], for which, under “VCaP, read-out: VCaP Dmax (%)”, the Dmax is less than 25%. Also, the DC50 under setting [3] was greater than 501 nM.

With `Cc1ncsc1-c1ccc([C@H](C)NC(=O)[C@@H]2C[C@@H](O)CN2C(=O)[C@@H](NC(=O)CN2CCO[C@H](CN3CCO[C@@H](COc4ccc(N5C(=S)N(c6ccc(C#N)c(C(F)(F)F)c6)C(=O)C5(C)C)cc4)C3)C2)C(C)(C)C)cc1` [Example 622, (2S,4R)-1-((S)-2-(2-((R)-2-(((R)-2-((4-(3-(4-cyano-3-(trifluoromethyl)phenyl)-5,5-dimethyl-4-oxo-2-thioxoimidazolidin-1-yl)phenoxy)methyl)mor-pholino)methyl)mor-pholino)acetamido)-3,3-dimethylbutanoyl)-4-hydroxy-N-((S)-1-(4-(4-methylthiazol-5-yl)phenyl)ethyl)pyrrolidine-2-carboxamide], the Dmax (VCaP, read-out: VCaP Dmax (%)) was less than 25%. The DC50 under setting [3] is greater than 501 nM.

Regarding `Cc1ncsc1-c1ccc([C@H](C)NC(=O)C2C[C@@H](O)CN2C(=O)C(NC(=O)CN2CCC(OCCOc3ccc(C(=O)N[C@H]4C(C)(C)[C@H](Oc5ccc(C#N)c(Cl)c5)C4(C)C)cc3)CC2)C(C)(C)C)cc1` (stereo partly drawn) [Example 623, (2S,4R)-1-((S)-2-(2-(4-(2-(4-(((1r,3r)-3-(3-chloro-4-cyanophenoxy)-2,2,4,4-tetramethylcyclobutyl)carbamoyl)phenoxy)eth-oxy)piperidin-1-yl)acetamido)-3,3-dimethylbutanoyl)-4-hydroxy-N-((S)-1-(4-(4-methylthiazol-5-yl)phenyl)ethyl)pyrrolidine-2-carboxamide], under setting [1], the DC50 is less than 50 nM. The Dmax under setting [2] was greater than 71%.

With `Cc1ncsc1-c1ccc([C@H](C)NC(=O)[C@@H]2CC(O)CN2C(=O)[C@H](C(C)C)n2nccc2OCCCCCNc2ccc(C(=O)N[C@H]3C(C)(C)[C@H](Oc4ccc(C#N)c(Cl)c4)C3(C)C)cc2)cc1` (stereo partly drawn) [Example 624, (2S,4R)-1-((S)-2-(5-((5-((4-(((1r,3r)-3-(3-chloro-4-cyanophenoxy)-2,2,4,4-tetramethylcyclobutyl)carbamoyl)phenyl)amino)pentyl)oxy)-1H-pyrazol-1-yl)-3-methylbutanoyl)-4-hydroxy-N-((S)-1-(4-(4-methylthiazol-5-yl)phenyl)ethyl)pyrrolidine-2-carboxamide], under setting [1], the DC50 was greater than 501 nM. For the same compound, the Dmax under setting [2] is less than 25%.

On to `Cc1ncsc1-c1ccc([C@H](C)NC(=O)[C@@H]2CC(O)CN2C(=O)[C@H](C(C)C)n2nccc2OCCCCCNc2ccc(C(=O)N[C@H]3C(C)(C)[C@H](Oc4ccc(C#N)c(Cl)c4)C3(C)C)cc2)cc1` (stereo partly drawn) [Example 625, (2S,4R)-1-((R)-2-(5-((5-((4-(((1r,3r)-3-(3-chloro-4-cyanophenoxy)-2,2,4,4-tetramehtylcyclobutyl)carbamoyl)phenyl)amino)pentyl)oxy)-1H-pyrazol-1-yl)-3-methylbutanoyl)-4-hydroxy-N-((S)-1-(4-(4-methylthiazol-5-yl)phenyl)ethyl)pyrrolidine-2-carboxamide], for which, for the setting “VCaP cells; Table 36”, the “VCaP Dmax (%)” value was “++ (26% ≤ Dmax ≤ 50%)”. The DC50 under setting [1] was greater than 501 nM.

Consider `Cc1ncsc1-c1ccc([C@H](C)NC(=O)[C@@H]2C[C@@H](O)CN2C(=O)[C@H](C(C)C)n2cc(Oc3ccc(OC4CCC(Oc5ccc(N6C(=S)N(c7ccc(C#N)c(C(F)(F)F)c7)C(=O)C6(C)C)cc5)CC4)nc3)cn2)cc1` (stereo partly drawn) [Example 627, (2S,4R)-1-((S)-2-(4-((6-((4-(4-(3-(4-cyano-3-(trifluoromethyl)phenyl)-5,5-dimethyl-4-oxo-2-thioxoimidazolidin-1-yl)phenoxy)cyclohexyl)oxy)pyridin-3-yl)oxy)-1H-pyrazol-1-yl)-3-methylbutanoyl)-4-hydroxy-N-((S)-1-(4-(4-methylthiazol-5-yl)phenyl)ethyl)pyrrolidine-2-carboxamide], for which the Dmax (VCaP, read-out: VCaP Dmax (%)) fell in the range of 26 to 50%. In addition, the DC50 under setting [3] was greater than 501 nM.
